This passage reports MIC and LD99 results from ChEMBL document CHEMBL1158833, “Roquefortine E, a diketopiperazine from an Australian isolate of Gymnoascus reessii” (2005).

Assay [1] has as its system Bacillus subtilis. Description: Antimicrobial activity against Bacillus subtilis. The class given is functional.
Assay [2] can be described thus: Cytotoxicity against mouse NS1 cells. The class given is functional.

Usually MIC stands for the lowest concentration that inhibits growth of the organism. Read a high MIC as a need for much substance.

Converted amounts (≈) assume the structure as drawn.

In assay [1], `C=CC(C)(C)[C@@]12C[C@H]3C(=O)N/C(=C/c4c[nH]cn4)C(=O)N3[C@@H]1Nc1ccccc12` [ROQUEFORTINE C] had an MIC of 6.3 µg/mL (≈ 16.2 µM). The same compound showed an LD99 in assay [2] of 50 µg/mL.

`C=CC(C)(C)c1[nH]cnc1/C=C1/NC(=O)[C@@H]2C[C@@]3(C(C)(C)C=C)c4ccccc4N[C@H]3N2C1=O` [ROQUEFORTINE E] gave an LD99 in assay [2] of 24 µg/mL.
